Values after ≈ are worked out from the molar mass of the structure shown.
Experiments:
Staphylococcus aureus [1] = assay: Antibacterial activity against methicillin-resistant Staphylococcus aureus; assay type: functional
[2] = Cytotoxicity against mouse fibroblast cells assessed as cell viability at […] (reference value: 90.23 %); assay type: toxicity, cell-based; design: dose or concentration left out as unconfirmed; details: read-out: Activity
Listeria monocytogenes = assay: Antimicrobial activity against Listeria monocytogenes by serial dilution method; assay type: functional
Escherichia coli = assay: Antimicrobial activity against Escherichia coli by serial dilution method; assay type: functional
Staphylococcus aureus [3] = assay: Antimicrobial activity against Staphylococcus aureus by serial dilution method; assay type: functional
Pseudomonas aeruginosa = assay: Antimicrobial activity against Pseudomonas aeruginosa by serial dilution method; assay type: functional
Salmonella typhi = assay: Antimicrobial activity against Salmonella typhi by serial dilution method; assay type: functional, Salmonella enterica subsp. enterica serovar Typhi; details: Salmonella enterica
Candida albicans = assay: Antimicrobial activity against Candida albicans by serial dilution method; assay type: functional
Bacillus cereus = assay: Antimicrobial activity against Bacillus cereus by serial dilution method; assay type: functional
Shigella flexneri = assay: Antimicrobial activity against Shigella flexneri by serial dilution method; assay type: functional

For `Clc1cccc(-n2nc(C3CCNCC3)cc2/C=C/c2c[nH]c3ccc(Cl)cc23)c1`, which MIC (Staphylococcus aureus [1]) is on record?
Its MIC is 1 µg/mL (≈ 2.29 µM).

Which viability [2] does the source give for `CCOC(=O)C1(C(=O)OCC)C[C@@H](c2c[nH]c3ccc(C)cc23)O[C@H]1c1cn(-c2ccccc2)nc1-c1ccc(F)cc1` here?
Its viability is 99.2%.

For `CCOC(=O)C1(C(=O)OCC)C[C@@H](c2c[nH]c3ccc(OC)cc23)O[C@H]1c1cn(-c2ccccc2)nc1-c1ccc(Cl)cc1`, which viability [2] is on record?
Its viability is 88.8%.

With `CC1(C)S[C@@H]2[C@H](NC(=O)[C@H](N)c3ccc(O)cc3)C(=O)N2[C@H]1C(=O)O` [AMOXICILLIN] as the compound, how does the MIC (Listeria monocytogenes) read?
Its MIC is 3.12 µg/mL (≈ 8.55 µM).

And the MIC (Escherichia coli)?
Its MIC is 3.12 µg/mL (≈ 8.55 µM).

What about the MIC (Staphylococcus aureus [3]) of the same compound?
The MIC was 3.12 µg/mL (≈ 8.55 µM).

What about the MIC (Pseudomonas aeruginosa) of the same compound?
Its MIC is 3.12 µg/mL (≈ 8.55 µM).

What about the MIC (Salmonella typhi) of the same compound?
Its MIC is 3.12 µg/mL (≈ 8.55 µM).

What about the MIC (Candida albicans) of the same compound?
Its MIC is 6.25 µg/mL (≈ 17.1 µM).

And the MIC (Bacillus cereus)?
Its MIC is 3.12 µg/mL (≈ 8.55 µM).

What about the MIC (Shigella flexneri) of the same compound?
The MIC was 3.12 µg/mL (≈ 8.55 µM).

With `CCOC(=O)C1(C(=O)OCC)C[C@@H](c2c[nH]c3ccc(F)cc23)O[C@H]1c1cn(-c2ccccc2)nc1-c1ccc(C)cc1` as the compound, how does the viability [2] read?
The viability was 96.5%.

Which viability [2] does the source give for `CCOC(=O)C1(C(=O)OCC)C[C@@H](c2c[nH]c3ccc(F)cc23)O[C@H]1c1cn(-c2ccccc2)nc1-c1ccc(Cl)cc1` here?
The viability was 99.1%.

For `CCOC(=O)C1(C(=O)OCC)C[C@@H](c2c[nH]c3ccc(OC)cc23)O[C@H]1c1cn(-c2ccccc2)nc1-c1ccc(C)cc1`, which viability [2] is on record?
Its viability is 88.9%.

Which viability [2] does the source give for `CCOC(=O)C1(C(=O)OCC)C[C@@H](c2c[nH]c3ccc(F)cc23)O[C@H]1c1cn(-c2ccccc2)nc1-c1ccc(F)cc1` here?
The viability was 96.2%.

Which viability [2] does the source give for `CCOC(=O)C1(C(=O)OCC)C[C@@H](c2c[nH]c3ccc(C)cc23)O[C@H]1c1cn(-c2ccccc2)nc1-c1ccc(OC)cc1` here?
The viability was 93.5%.

With `CCOC(=O)C1(C(=O)OCC)C[C@@H](c2c[nH]c3ccccc23)O[C@@H]1c1cn(-c2ccccc2)nc1-c1ccc(Cl)cc1` as the compound, how does the MIC (Listeria monocytogenes) read?
The MIC was 12.5 µg/mL (≈ 21.4 µM).

And the MIC (Escherichia coli)?
Its MIC is 6.25 µg/mL (≈ 10.7 µM).

And the MIC (Staphylococcus aureus [3])?
Its MIC is 6.25 µg/mL (≈ 10.7 µM).

What about the MIC (Pseudomonas aeruginosa) of the same compound?
Its MIC is 3.12 µg/mL (≈ 5.35 µM).

And the MIC (Salmonella typhi)?
Its MIC is 6.25 µg/mL (≈ 10.7 µM).

And the MIC (Candida albicans)?
Its MIC is 12.5 µg/mL (≈ 21.4 µM).

And the MIC (Bacillus cereus)?
Its MIC is 6.25 µg/mL (≈ 10.7 µM).

And the MIC (Shigella flexneri)?
The MIC was 12.5 µg/mL (≈ 21.4 µM).

Which viability [2] does the source give for `CCOC(=O)C1(C(=O)OCC)C[C@@H](c2c[nH]c3ccccc23)O[C@H]1c1cn(-c2ccccc2)nc1-c1ccc(OC)cc1` here?
The viability was 94.3%.

For `CCOC(=O)C1(C(=O)OCC)C[C@@H](c2c[nH]c3ccc(Cl)cc23)O[C@H]1c1cn(-c2ccccc2)nc1-c1ccccc1`, which viability [2] is on record?
Its viability is 94.3%.

Which viability [2] does the source give for `CCOC(=O)C1(C(=O)OCC)C[C@@H](c2c[nH]c3ccc(F)cc23)O[C@H]1c1cn(-c2ccccc2)nc1-c1ccccc1` here?
Its viability is 95.7%.

Which viability [2] does the source give for `CCOC(=O)C1(C(=O)OCC)C[C@@H](c2c[nH]c3ccc(OC)cc23)O[C@H]1c1cn(-c2ccccc2)nc1-c1ccccc1` here?
Its viability is 90.1%.

For `CCOC(=O)C1(C(=O)OCC)C[C@@H](c2c[nH]c3ccc(OC)cc23)O[C@H]1c1cn(-c2ccccc2)nc1-c1ccc(OC)cc1`, which viability [2] is on record?
The viability was 90.1%.

Which MIC (Listeria monocytogenes) does the source give for `CCOC(=O)C1(C(=O)OCC)C[C@@H](c2c[nH]c3ccccc23)O[C@H]1c1cn(-c2ccccc2)nc1-c1ccc(Cl)cc1` here?
Its MIC is 1.56 µg/mL (≈ 2.67 µM).

And the viability [2]?
The viability was 98.1%.

And the MIC (Escherichia coli)?
Its MIC is 3.12 µg/mL (≈ 5.35 µM).

What about the MIC (Staphylococcus aureus [3]) of the same compound?
Its MIC is 1.56 µg/mL (≈ 2.67 µM).

What about the MIC (Pseudomonas aeruginosa) of the same compound?
Its MIC is 1.56 µg/mL (≈ 2.67 µM).

And the MIC (Salmonella typhi)?
Its MIC is 1.56 µg/mL (≈ 2.67 µM).

And the MIC (Candida albicans)?
The MIC was 12.5 µg/mL (≈ 21.4 µM).

What about the MIC (Bacillus cereus) of the same compound?
Its MIC is 1.56 µg/mL (≈ 2.67 µM).

What about the MIC (Shigella flexneri) of the same compound?
Its MIC is 6.25 µg/mL (≈ 10.7 µM).

Which viability [2] does the source give for `CCOC(=O)C1(C(=O)OCC)C[C@@H](c2c[nH]c3ccc(Cl)cc23)O[C@H]1c1cn(-c2ccccc2)nc1-c1ccc(Cl)cc1` here?
The viability was 95.2%.

For `CCOC(=O)C1(C(=O)OCC)C[C@@H](c2c[nH]c3ccc(C)cc23)O[C@H]1c1cn(-c2ccccc2)nc1-c1ccc(Cl)cc1`, which viability [2] is on record?
The viability was 92.3%.

With `CCOC(=O)C1(C(=O)OCC)C[C@@H](c2c[nH]c3ccc(Cl)cc23)O[C@H]1c1cn(-c2ccccc2)nc1-c1ccc(C)cc1` as the compound, how does the viability [2] read?
The viability was 97.6%.

For `CCOC(=O)C1(C(=O)OCC)C[C@@H](c2c[nH]c3ccc(Cl)cc23)O[C@H]1c1cn(-c2ccccc2)nc1-c1ccc(OC)cc1`, which viability [2] is on record?
The viability was 91.4%.

For `CCOC(=O)C1(C(=O)OCC)C[C@@H](c2c[nH]c3ccc(C)cc23)O[C@H]1c1cn(-c2ccccc2)nc1-c1ccc(C)cc1`, which viability [2] is on record?
The viability was 94.2%.

Which viability [2] does the source give for `CCOC(=O)C1(C(=O)OCC)C[C@@H](c2c[nH]c3ccc(OC)cc23)O[C@H]1c1cn(-c2ccccc2)nc1-c1ccc(F)cc1` here?
Its viability is 94.8%.

For `CCOC(=O)C1(C(=O)OCC)C[C@@H](c2c[nH]c3ccc(C)cc23)O[C@H]1c1cn(-c2ccccc2)nc1-c1ccccc1`, which viability [2] is on record?
The viability was 92.3%.

With `CC(=O)/C(=C\c1cn(CC(=O)N2CCCCC2)c2ccccc12)n1c([N+](=O)[O-])cnc1C` as the compound, how does the MIC (Staphylococcus aureus [1]) read?
Its MIC is 1 µg/mL (≈ 2.3 µM).

For `CCOC(=O)C1(C(=O)OCC)C[C@@H](c2c[nH]c3ccccc23)O[C@H]1c1cn(-c2ccccc2)nc1-c1ccc(F)cc1`, which viability [2] is on record?
The viability was 99.1%.

With `CCOC(=O)C1(C(=O)OCC)C[C@@H](c2c[nH]c3ccccc23)O[C@H]1c1cn(-c2ccccc2)nc1-c1ccccc1` as the compound, how does the viability [2] read?
Its viability is 93.2%.

Which viability [2] does the source give for `CCOC(=O)C1(C(=O)OCC)C[C@@H](c2c[nH]c3ccccc23)O[C@H]1c1cn(-c2ccccc2)nc1-c1ccc(C)cc1` here?
The viability was 95.3%.

With `OC(Cn1cncn1)(Cn1cncn1)c1ccc(F)cc1F` [FLUCONAZOLE] as the compound, how does the MIC (Candida albicans) read?
The MIC was 6.25 µg/mL (≈ 20.4 µM).

With `CCOC(=O)C1(C(=O)OCC)C[C@@H](c2c[nH]c3ccc(Cl)cc23)O[C@H]1c1cn(-c2ccccc2)nc1-c1ccc(F)cc1` as the compound, how does the viability [2] read?
Its viability is 90.5%.

For `CCOC(=O)C1(C(=O)OCC)C[C@@H](c2c[nH]c3ccc(F)cc23)O[C@H]1c1cn(-c2ccccc2)nc1-c1ccc(OC)cc1`, which viability [2] is on record?
The viability was 94.6%.
